Positions of bridges follow the written chain, without caps; N, C: chain ends. No end group written: not given here.
Tested on: vascular endothelial cells
Assay: Smad 1, 5 phosphorylation in vascular endothelial cells (Western blot)
Type: cell-based
Details: added to vascular endothelial cells in culture
Experimental: (§1) Phosphorylation and nuclear translocation of Smads occurs following the activation of Type I and Type II receptors and subsequent signal transduction to intracellular Smad targets. Phosphorylation and nuclear translocation of R-Smad in HK-2, vascular endothelial, human prostate or other cells by TDFRP compounds is assayed by immuno-fluorescent microscopy methods, using anti-phospho Smad 1/5 antibodies according to the procedure of H Aoki, M Fujii, T Imamura, K Yagi, K Takehara, M Kato and K Miyazono. J. of Cell Sci. 114, 1483-1489, 2001) and by Western blot analysis (FIGS. 2, 3, 18, 2X).
The detection of Smad phosphorylation by Western analysis, for example in LNCaP (prostate cancer cells) or EC (vascular endothelial cells) in culture medium can be examined after exposure to varying concentrations of TDFRP or control compounds. BMP-7 serves as a positive control. Cells are lysed in RIPA lysis buffer (50 mM Tris-HCl at pH 8.0, 150 mM NaCl, 1% NP-40, 0.5% sodium deoxycholate, 0.1% SDS) containing 1 mM PMSF, 1 mM sodium orthovanadate, and 10 ug/mL proteinase inhibitor cocktail. Lysates are incubated on ice for 15 minutes, centrifuged, and transferred supernatant to a clean tube. 50 to 100 ug is used for analysis by SDS-PAGE. Resolved proteins are electro transferred onto PVDF membrane. The blot is blocked by incubating in 3% non-fat dry milk prepared in PBS at room temperature for 1 hour with constant slow agitation. The blot is incubated with 1-2 ug/mL of primary antibody (rabbit anti-phospho-Smad 1) prepared in PBS-milk, overnight with agitation at 4 degree C., washed twice with PBS, and incubated with secondary antibody (anti rabbit HRP conjugated IgG, 1:3000 dilution) at room temperature for 2 hours with agitation. After washing in PBS-0.05% Tween 20 for 5 minutes and rinsing, Smad phosphorylation is detected via an HRP reaction according to manufacturer's instructions (FIGS. 2, 3, 18, 2X).
as §1, with “HK-2” for “HK-2, vascular endothelial, human prostate or other”, “analysis in various cell types” for “analysis”, “27).” for “2X).”
For detection of Smad phosphorylation by Western analysis, LNCaP (prostate cancer cells) or EC (vascular endothelial cells) in culture medium are exposed to varying concentrations of TDFRP or control compounds. BMP-7 served as a positive control. Cells are lysed in RIPA lysis buffer (50 mM Tris-HCl at pH 8.0, 150 mM NaCl, 1% NP-40, 0.5% sodium deoxycholate, 0.1% SDS) containing 1 mM PMSF, 1 mM sodium orthovanadate, and 10 ug/mL proteinase inhibitor cocktail. Lysates are incubated on ice for 15 minutes, centrifuged, and transferred supernatant to a clean tube. 50 to 100 ug is used for analysis by
SDS-PAGE. Resolved proteins are electro transferred onto PVDF membrane. The blot is blocked by incubating in 3% non-fat dry milk prepared in PBS at room temperature for 1 hour with constant slow agitation. The blot is incubated with 1-2 ug/mL of primary antibody (rabbit anti-phospho-Smad 1) prepared in PBS-milk, overnight with agitation at 4 degree C., washed twice with PBS, and incubated with secondary antibody (anti rabbit HRP conjugated IgG, 1:3000 dilution) at room temperature for 2 hours with agitation. After washing in PBS-0.05% Tween 20 for 5 minutes and rinsing, Smad phosphorylation is detected via an HRP reaction according to manufacturer's instructions (FIGS. 3, 27).

With “CYFDDSSNVLCKKYRS (disulfide 1-11 (inferred); not fully specified) [SEQ ID NO:45]” the “phosphorylation and activation of intracellular Smad 1, 5” value was “phosphorylation and activation of intracellular Smad 1, 5”.

— patent publication US8911953B2, “TDF-related compounds and analogs thereof, analogs and bioactive fragments” (Thrasos Innovation, Inc., priority 2005, dated 2014)
